How the values were obtained:
Assay type in all cases: cell-based, human
CD8+CD45RClow/- Tregs [1] = test: Expansion of CD8+CD45RClow/- Tregs with anti-CD3/anti-CD28 in medium supplemented with immunosuppressive drugs (14 days); settings: rapamycin 45 ng/ml, methylprednisolone 500 pg/ml, mycophenolate mofetil 1 μg/ml; for expansion yield: Example 3, FIG. 3, cyclosporine A 45 ng/ml, tacrolimus 2 ng/ml, vs no IS drug
Protocol: CD8^+CD45RC^low/− Tregs from fresh or thawed PBMCs were seeded at 3×10^5/ml in RPMI1640 medium supplemented with 10% AB serum, Penicillin (100 U/ml), Streptomycin (0.1 mg/ml), Sodium pyruvate (1 mM), Glutamine (2 mM), Hepes Buffer (1 mM), non-essential amino acids (1×), IL-2 (1000 U/ml) and IL-15 (10 ng/ml), and were stimulated with coated anti-CD3 mAb (1 μg/ml), soluble anti-CD28 mAb (1 μg/ml) and/or allogeneic APCs at 1:4 Tregs: APCs ratio. At day 7, expanded cells were diluted at 1.5×10^5/ml and stimulated again with coated anti-CD3 and soluble anti-CD28 mAbs (1 μg/ml each). […] At day 14, expanded Tregs were washed with PBS before use. Suppressive activity was tested on CD8^+CD45RC^low/− Tregs expanded more than 10 fold in 7 days. For long-term expansion, CD8^+CD45RC^low/− Tregs and CD4^+CD25^highCD127^low/− Tregs were stimulated again with coated anti-CD3 (1 μg/ml) and soluble anti-CD28 MAbs (1 μg/ml) at days 14 and 21 and IL-2 and IL-15 cytokines were freshly added every 2 days from day 7 to 28. Culture medium 1× cytokines (IL-2 (1000 U/ml) and IL-15 (10 ng/ml)) was added when required.

CD8+CD45RClow/- Tregs [2] = test: Suppressive activity of drug-expanded Tregs on CD4+CD25- effector T cells stimulated with allogeneic APCs (CFSE); settings: for suppressive activity of Tregs: Example 3, FIG. 3, Tregs harvested at day 14, 1:1:1 Tregs:Teff:APCs, same drug concentrations, vs no IS drug
Protocol: CD8^+CD45RC^low/− Tregs from fresh or thawed PBMCs were seeded at 3×10^5/ml in RPMI1640 medium supplemented with 10% AB serum, Penicillin (100 U/ml), Streptomycin (0.1 mg/ml), Sodium pyruvate (1 mM), Glutamine (2 mM), Hepes Buffer (1 mM), non-essential amino acids (1×), IL-2 (1000 U/ml) and IL-15 (10 ng/ml), and were stimulated with coated anti-CD3 mAb (1 μg/ml), soluble anti-CD28 mAb (1 μg/ml) and/or allogeneic APCs at 1:4 Tregs: APCs ratio. At day 7, expanded cells were diluted at 1.5×10^5/ml and stimulated again with coated anti-CD3 and soluble anti-CD28 mAbs (1 μg/ml each). […] At day 14, expanded Tregs were washed with PBS before use. Suppressive activity was tested on CD8^+CD45RC^low/− Tregs expanded more than 10 fold in […]. For long-term expansion, CD8^+CD45RC^low/− Tregs and CD4^+CD25^highCD127^low/− Tregs were stimulated again with coated anti-CD3 (1 μg/ml) and soluble anti-CD28 MAbs (1 μg/ml) at days 14 and 21 and IL-2 and IL-15 cytokines were freshly added every 2 days from day 7 to 28. Culture medium 1× cytokines (IL-2 (1000 U/ml) and IL-15 (10 ng/ml)) was added when required.
We tested the effect of immunosuppressive drugs (at concentrations used in the clinic) on CD8^+CD45RC^low/− Tregs survival 7 days following the 14 days expansion (FIG. 1) or on the expansion yield and suppressive function score of CD8^+CD45RC^low/− Tregs during the 14 days expansion (FIG. 3D).
Methods: Fresh blood was taken from 1 healthy volunteer, PBMCs were isolated by Ficoll centrifugation, washed in PBS, adjusted at 2×10^8 PBMC/ml in PBS-FCS-EDTA and were incubated with anti-CD3-PeCy7, anti CD4-PerCPCy5.5 and anti-CD45RC FITC 30′ 4° C. Cells were washed with PBS-FCS-EDTA, filtered on 60 μm tissue, labeled with Dapi and FACS Aria sorted on lymphocyte morphology, exclusion of doublet cells, and DAPI-CD3^+CD4^−CD45RC^low/− expression. […] At days 10 and 12, cytokines were freshly added. Expanded Tregs were harvested at day 14 for suppressive activity assessment. […] After 5 days culture, Teff proliferation was analyzed by CFSE analysis in DAPI^−CD4±CD3^+ T cells.

CD8+CD45RClow/- Tregs [3] = test: Tregs associated markers expression at day 21 after 7 d culture in IS-supplemented medium; settings: Example 4, FIG. 4, tacrolimus 2 ng/ml, compared to drug free medium
Protocol: Methods: Fresh blood was taken from 1 healthy volunteer, PBMCs were isolated by Ficoll centrifugation, washed in PBS, adjusted at 2×10^8 PBMC/ml in PBS-FCS-EDTA and were incubated with anti-CD3-PeCy7, anti CD4-PerCPCy5.5 and anti-CD45RC FITC 30′ 4° C. Cells were washed with PBS-FCS-EDTA, filtered on 60 μm tissue, labeled with Dapi and FACS Aria sorted on lymphocyte morphology, exclusion of doublet cells, and DAPI-CD3^+CD4^−CD45RC^low/− expression. […] At days 7, Tregs were harvested, counted, washed, and plated at 5×10^5Tregs/well/3 ml in p6 plate previously coated with anti-CD3 (OKT3 clone, 1 μg/ml in PBS, 1 ml/well, 1 h at 37° C. then washed with PBS 3 times), in RPMI1640 medium supplemented with 10% AB serum, Penicillin (100 U/ml), Streptomycin (0.1 mg/ml), Sodium pyruvate (1 mM), Glutamine (2 mM), Hepes Buffer (1 mM), non-essential amino acids (1×), IL-2 (1000 U/ml) and IL-15 (10 ng/ml), anti-CD28 mAbs (clone CD28.2, soluble, 1 μg/ml). […] Tregs were analyzed at day 21 for survival/expansion yield and phenotype.

## C=CC[C@@H]1/C=C(\C)C[C@H](C)C[C@H](OC)[C@H]2O[C@@](O)(C(=O)C(=O)N3CCCC[C@H]3C(=O)O[C@H](/C(C)=C/[C@@H]3CC[C@@H](O)[C@H](OC)C3)[C@H](C)[C@@H](O)CC1=O)[C@H](C)C[C@@H]2OC [Tacrolimus, tacrolimus]
CD8+CD45RClow/- Tregs [1]
  expansion yield: improved
CD8+CD45RClow/- Tregs [2]
  suppressive activity of Tregs: improved
CD8+CD45RClow/- Tregs [3]
  IFNg expression by Tregs: significantly decreased

## COc1c(C)c2c(c(O)c1C/C=C(\C)CCC(=O)OCCN1CCOCC1)C(=O)OC2 [mycophenolate mofetil]
CD8+CD45RClow/- Tregs [1]; Example 1, FIG. 3D, drugs added alone during 14 days or subsequently (day 0-7, then day 7-14), vs no immunosuppressor (NT)
  expansion fold: inhibited the expansion by rapamycin
CD8+CD45RClow/- Tregs [1]
  expansion yield: deleterious
CD8+CD45RClow/- Tregs [2]; Example 1, FIG. 3D, Tregs expanded 14 days with drugs alone or subsequently, vs no immunosuppressor (NT)
  suppression capacity: decreased suppression
CD8+CD45RClow/- Tregs [2]
  suppressive activity of Tregs: deleterious

Source: US20210147801A1, “METHODS FOR INCREASING EXPANSION AND IMMUNOSUPPRESSIVE CAPACITY OF A POPULATION OF CD8+CD45RCLOW/- TREGS” (INSERM (INSTITUT NATIONAL DE LA SANTÉ ET DE LA RECHERCHE …, priority 2017, published 2021)
